Patent US20230211023A1, “REPORTER SYSTEM FOR RADIONUCLIDE IMAGING” (Erasmus University Medical Center Rotterdam, priority 2020, published 2023)

Tests used:
LgBiT = LgBiT (Oplophorus gracilirostris, UniProt Q9GV45, A31E/A60N/A81I/D135N/F58L/F95D/G42A/G62A/G78A/G94A/G98A/H120P/I103V/I117V/I134L/K70R/L176M/L54V/L73R/L99Q/M102E/N171T/P142E/Q151K/Q38E/Q45L/V71I/Y165I); details: Dixon et al., 2016; read-out: Kd for binding to LgBiT / NLuc; cited from earlier work
[1] = system: cells expressing the reporter gene TMLgBiT; test: Binding of radiolabelled peptide to live cells expressing TMLgBiT, gamma counter; assay type: cell-based; details: 1 nM peptide, 20,000 cells/well, washed three times
cells expressing the reporter gene TMLgBiT, sequence (as listed by the source): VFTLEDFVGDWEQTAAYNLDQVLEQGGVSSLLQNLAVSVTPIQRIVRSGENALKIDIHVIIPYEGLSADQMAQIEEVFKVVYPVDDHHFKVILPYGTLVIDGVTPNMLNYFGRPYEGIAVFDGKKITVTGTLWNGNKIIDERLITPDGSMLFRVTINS
Procedure: The [^111In]-DOTA-6ahx-HiBiT peptide (1 nM) is added to cells expressing the reporter gene TMLgBiT and cells not expressing TMLgBiT are used as negative control (20,000 cells/well). Cells are washed three times and radioactivity measured at a gamma counter. A clear difference in radioactive signal (2000 fold) resulted between TMLgBiT expressing cells and cells non expressing the reporter gene. In FIG. 3, the radiation (in CPM, measured using a gamma counter) of cells expressing TMLgBiT and control cells after addition of […] of radioactive [^111In]-DOTA-6ahx-HiBiT peptide is provided.

[2] = system: subcutaneously injected TMLgBiT expressing cells; test: SPECT imaging of mouse injected subcutaneously with TMLgBiT expressing cells; assay type: in vivo; details: 1 hour after injection of peptide, 20 MBq
subcutaneously injected TMLgBiT expressing cells, sequence (as listed by the source): as above

PC3-TMLgBiT tumors = test: BL and dynamic SPECT/CT imaging of mice bearing PC3-TMLgBiT tumors (FIG. 7); assay type: in vivo, mouse; details: dynamic SPECT scan 1 hour after injection of 0,13 nM
PC3-TMLgBiT tumors, sequence (as listed by the source): as above
Procedure: For these experiments, eight-week-old nude BALB/C male mice (n=12) were injected with 5x10^6 PC-3-TM-LgBiT expressing cells (n=8). Cells were prepared for injections in PBS (Sigma-Aldrich) and matrigel (Corning) solution with a 50:50 ratio and a final injectable volume of 50 µL. Tumors were left to grow approximately 3-4 weeks post tumor cell implantation. To determine the functionality of the imaging system, a dynamic whole body SPECT/CT scan (VECT/CT Milabs) was performed. Mice were anesthetized using 1-2% isoflurane/O2 and the body temperature was maintained at 37° C. during the time of imaging (1 h) by using a heated bed aperture. The 1-hour dynamic SPECT/CT scan was performed immediately after tail vein injection of [^111In]-DOTA-6ahx-HiBiT for the PC-3 tumor model, (20 MBq labeled to 0.13 nmol in 200 µL PBS). […] Dynamic scans were obtained over a total duration of 1 h with 30 time frames, directly after injection of [^111In]-DOTA-6ahx-HiBiT. Acquired images were reconstructed using SR-OSEM with 9 iterations and 128 subsets on a 36 × 36 × 35 mm matrix with 0.80 × 0.80 mm isotropic voxels.

LgBiT, sequence (Q9GV45 other isoform, or with tags, fused parts or gaps with the stated changes): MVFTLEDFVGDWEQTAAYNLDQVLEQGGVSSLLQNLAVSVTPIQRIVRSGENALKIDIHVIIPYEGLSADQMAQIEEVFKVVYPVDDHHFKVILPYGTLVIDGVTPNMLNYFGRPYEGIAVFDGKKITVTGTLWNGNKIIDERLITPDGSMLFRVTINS

| Substance | Kd (LgBiT) | difference in radioactive signal between TMLgBiT expressing cells and cells not expressing the reporter gene [1] | SPECT detection of TMLgBiT expressing cells in vivo [2] | SPECT detection of TMLgBiT expressing cells in vivo ([2]; listed as 111In -DOTA-6ax-HiBit) | SPECT detection of TMLgBiT expressing cells in vivo ([2]; listed as radiolabeled HiBiT peptide) | SPECT signal from tumor (PC3-TMLgBiT tumors) |
| --- | --- | --- | --- | --- | --- | --- |
| NVTGYRLFKKISN [NLpep79] | 8.5 nM |  |  |  |  |  |
| [^111In]-DOTA-6ahx-HiBiT: DOTA-6ahx-HiBiT radiolabelled with indium-111 |  | 2000 fold | can be specifically detected | could be detected in vivo | High specific signal is detected | specific signal from tumor is visible |
| NVSGWRLFKKISN [NLpep78] | 3.4 nM |  |  |  |  |  |
